Experiment [1] in a line: Antioxidant activity against AAPH-induced lipid peroxidation assessed as trolox equivalent of peroxy radical scavenging activity after 10 mins by ORAC assay. It counts as functional.
A short description of experiment [2]: Antioxidant activity assessed as trolox equivalent of ABTS radical scavenging activity after 12 to 16 hrs by spectrophotometry. It counts as functional.

Turning to `O=c1c(O)c(-c2ccc(O)c(O)c2)oc2cc(O)cc(O)c12`, the Activity in experiment [1] came to 8.7; in experiment [2], 3.99.
Take `C[C@H]1O[C@@H](c2c(O[C@@H]3O[C@H](CO)[C@@H](O)[C@H](O)[C@H]3O)cc3oc(-c4ccc(O)c(O)c4)cc(=O)c3c2O)C[C@H](O)[C@H]1O`: the Activity in experiment [1] is 26.8; in experiment [2], 0.332.
In the case of `C[C@@H]1O[C@@H](O[C@@H]2C(=O)[C@H](O)[C@@H](C)O[C@H]2c2c(O)cc3oc(-c4ccc(O)c(O)c4)cc(=O)c3c2O)[C@H](O)[C@H](O)[C@H]1O`, the Activity in experiment [1] stood at 5.7; in experiment [2] it was 0.646.
As to `C[C@H]1O[C@@H](c2c(O)cc3oc(-c4ccc(O[C@@H]5O[C@H](CO)[C@@H](O)[C@H](O)[C@H]5O)c(O)c4)cc(=O)c3c2O)C[C@H](O)[C@H]1O`, the results for the Activity in experiment [1] and in experiment [2] were 8.3 and 0.075, respectively.
On the same counts, the results for `O=c1cc(-c2ccc(O)c(O)c2)oc2cc(O)c([C@@H]3O[C@H](CO)[C@@H](O)[C@H](O)[C@H]3O)c(O)c12` are 66.5 and 1.56.
Turning to `COc1cc(-c2cc(=O)c3c(O[C@@H]4O[C@H](CO)[C@@H](O)[C@H](O)[C@H]4O)cc(O)cc3o2)cc(OC)c1O`, the results for the Activity in experiment [1] and in experiment [2] were 18.2 and 0.063, respectively.

(Values after ChEMBL document CHEMBL1221410, “Antioxidant flavone glycosides from the leaves of Fargesia robusta” (J Nat Prod, 2010).)
